Experimental findings from patent US10590145B2, “Tetrahydrothiopyranopyrimidine derivatives as anti-HIV agent” (SHANDONG UNIVERSITY, priority 2016, dated 2020) are described below.

Each structure is given as a SMILES string. Where only a bound is given, the exact number is not on record here.

The test system of data set [1] is HIV-1 K103N mutant strain. The experiment in a line: Anti-HIV-1 activity in MT-4 cells (MTT method), K103N. The class given is cell-based. The settings on record: Human immunodeficiency virus 1, MT4, read-out: EC50 (nM) K103N. As for the experimental part:
(§1) Selected compounds were screened for inhibitory activity against HIV-1 using MTT method as describe previously by Christophe. Pannecouque et al. Nat. Protoc. 3 (2008) 427-434, and Rudi Pauwels et al. J. Virol. Methods 20 (1988) 309-321. Briefly, MT-4 cells infected with HIV-1 can only survive for 5 to 7 days without any treatment, but when HIV-1 inhibitors were added, they can protect MT-4 cell from cytopathic. Serial solution of compounds was added to MT-4 cells after infected with HIV-1, MTT method was used to detect the survival rate after culture for 5 to 7 days. EC50 value was defined as compound concentration required to achieve 50% protection of MT-4 cells against HIV-1-induced cytopathic effect. In vitro anti-HIV-1 assay was supported by Rega Institute for Medical Research.
(§2) • (1) MT-4 cells infected with HIV-1 viral strains (IIIB, L100I, K103N, Y181C, Y188L, E138K, F227L/V106A, Y181C/K103N) were provided by Rega Institute for Medical Research, Katholieke Universiteit Leuven, Belgium. • (2) MTT and formazan: sigma Chemical Co. • (3) Preparation of compounds: Stock solutions (10×final concentration) of test compounds is diluted with double distilled water for 5 folds and 5 concentrations of one compound are prepared. • (4) Reference drugs: Nevirapine (NVP), Efavirenz (EFV), Etravirine (ETV), Rilpivirine (RPV) and Azidothymidine (AZT). • (5) Method (MTT method): Serial five-fold dilutions of test compounds were added to cultured MT-4 cells infected with HIV-1, after 5 to 7 days, MTT was added and cultured for a few hours. Medium was removed and lysate was added followed by formazan, OD value was determined in 690 nm and 540 nm by microplate reader, and EC50 value was calculated. 2. Method
(§3) The MTT method was described briefly as follows: 96-well plastic microtiter trays were filled with 100 μL of complete medium. Subsequently, serial of tested compounds was added (25 μL) to two series of triplicate wells so as to allow simultaneous evaluation of their effects on HIV- and mock infected cells. 50 μL of 1×10^4 cells/mL MT-4 cells were added. After cultured for 5 days at 37° C. in humidified atmosphere in the presence of 5% CO2, MTT was added and cultured for another 2 h, then medium was removed and 100 μL isopropanol solution was added to lyse the cells. Formazan crystals were added and vibrated platform shaker for 10 min to solubilize the formazan crystals. Absorbances at 690 nm and 540 nm were read by using spectrophotometrically. EC50 was defined as the concentration achieving 50% protection from the cytopathic effect of the virus in infected cells.
(§4) Selected compounds prepared as described above were assayed in MT-4 cells infected with wide-type IIIB, L100I, K103N, Y181C, Y188L, E138K or double mutant RES056 (Y181C/K103N) and F227L/V106A HIV-1 strains. Nevirapine, Efavirenz, Etravirine, Rilpivirine and Azidothymidine were selected as reference drugs. The results were listed below as EC50 value (nM)
On the technique in general: Tetrazolium assays rely on reduction of a dye to a coloured formazan, in cell work by metabolically active cells.

The subject of data set [2] is HIV-1 E138K mutant strain. Nature of the data set: Anti-HIV-1 activity in MT-4 cells (MTT method), E138K. The format is cell-based. The following applies: Human immunodeficiency virus 1, MT4, read-out: EC50 (nM) E138K. How it is done:
as §1, §2, §3, §4

Data set [3] has as its system HIV-1 L100I mutant strain. The experiment in a line: Anti-HIV-1 activity in MT-4 cells (MTT method), L100I. The format is cell-based. The settings on record: Human immunodeficiency virus 1, MT4, read-out: EC50 (nM) L100I. How it is done: as §1, §2, §3, §4
For data set [4], the system named is HIV-1 Y188L mutant strain. Nature of the data set: Anti-HIV-1 activity in MT-4 cells (MTT method), Y188L. The class given is cell-based. The following applies: Human immunodeficiency virus 1, MT4, read-out: EC50 (nM) Y188L. How it is done: as §1, §2, §3, §4
In data set [5] the test system is HIV-1 double mutant RES056 (Y181C/K103N). Nature of the data set: Anti-HIV-1 activity in MT-4 cells (MTT method), RES056. The class given is cell-based. The settings on record: Human immunodeficiency virus 1, MT4, read-out: EC50 (nM) Y181C/K103N. As for the experimental part:
as §1, §2, §3, §4

The subject of data set [6] is HIV-1 F227L/V106A double mutant strain. Nature of the data set: Anti-HIV-1 activity in MT-4 cells (MTT method), F227L/V106A. The class given is cell-based. The following applies: Human immunodeficiency virus 1, MT4, read-out: EC50 (nM) F227L/V106A. As for the experimental part: as §1, §2, §3, §4
In data set [7] the test system is wide-type HIV-1 (strain IIIB). Nature of the data set: Anti-HIV-1 activity in MT-4 cells (MTT method), wild-type. The class given is cell-based. The settings on record: Human immunodeficiency virus 1, IIIB, MT4, read-out: EC50 (nM) wt. How it is done:
as §1, §2, §3, §4

In data set [8] the test system is HIV-1 Y181C mutant strain. The experiment in a line: Anti-HIV-1 activity in MT-4 cells (MTT method), Y181C. The format is cell-based. The settings on record: Human immunodeficiency virus 1, MT4, read-out: EC50 (nM) Y181C. How it is done: as §1, §2, §3, §4

A word on the melting point: it is the temperature of the solid-liquid transition. As for `Cc1cc(C#N)cc(C)c1Oc1nc(Nc2ccc(C#N)cc2)nc2c1SCCC2` [IA-1-1, 4-((2-((4-cyanophenyl)amino)-7,8-dihydro-6H-thiopyrano[3,2-d]pyrimidin-4-yl)oxy)-3,5-dimethylbenzonitrile], the melting point fell in the range of 253 to 254 °C. For the same compound, in data set [1], the EC50 is under 10 nM. Further, the EC50 in [2] lay within 10 to 100 nM. Further, in [3], the EC50 fell in the range of 10 to 100 nM. The EC50 in [4] was 10 to 100 nM. For the same compound, in data set [5], the EC50 was 10 to 100 nM. The EC50 in [6] is 10 to 100 nM. The EC50 in data set [7] was under 10 nM. In addition, the EC50 in data set [8] lay within 10 to 100 nM.
In turn, `Cc1cc(C#N)cc(C)c1Oc1nc(Nc2ccc(C#N)cc2)nc2c1[S+]([O-])CCC2` (stereo not drawn) [IA-1-3, 4-((2-((4-cyanophenyl)amino)-5-oxido-7,8-dihydro-6H-thiopyrano[3,2-d]pyrimidin-4-yl)oxy)-3,5-dimethylbenzonitrile] returned a melting point of 247 to 249 °C. For the same compound, in [1], the EC50 lay in the range of 10 to 100 nM. The EC50 in [2] was in the range of 10 to 100 nM. In data set [3], the EC50 is over 100 nM. Also, the EC50 in data set [4] lay within 10 to 100 nM. Besides, in [5], the EC50 is over 100 nM. The EC50 in [6] is over 100 nM. Further, the EC50 in [7] was under 10 nM. In data set [8], the EC50 lay within 10 to 100 nM.
